Among the targets are ALK(L1196M) (Homo sapiens, UniProt Q9UM73, L1196M); CSNK1E (Homo sapiens, UniProt P49674); ERN1 (Homo sapiens, UniProt O75460); FGFR4 (Homo sapiens, UniProt P22455); LYN (Homo sapiens, UniProt P07948); MAP4K4 (Homo sapiens, UniProt O95819); WNK1 (Homo sapiens, UniProt Q9H4A3).
Common to all, as to experiment: biochemical
Holding throughout (set-up): DiscoveRx KINOMEscan active site-directed competition binding; percent of control kinase bound to immobilised ligand

A further assay concerns the target T1, DCAMKL1 (Homo sapiens, UniProt O15075).
T1 construct: gene DCLK1
T1 sequence (O15075 1-740): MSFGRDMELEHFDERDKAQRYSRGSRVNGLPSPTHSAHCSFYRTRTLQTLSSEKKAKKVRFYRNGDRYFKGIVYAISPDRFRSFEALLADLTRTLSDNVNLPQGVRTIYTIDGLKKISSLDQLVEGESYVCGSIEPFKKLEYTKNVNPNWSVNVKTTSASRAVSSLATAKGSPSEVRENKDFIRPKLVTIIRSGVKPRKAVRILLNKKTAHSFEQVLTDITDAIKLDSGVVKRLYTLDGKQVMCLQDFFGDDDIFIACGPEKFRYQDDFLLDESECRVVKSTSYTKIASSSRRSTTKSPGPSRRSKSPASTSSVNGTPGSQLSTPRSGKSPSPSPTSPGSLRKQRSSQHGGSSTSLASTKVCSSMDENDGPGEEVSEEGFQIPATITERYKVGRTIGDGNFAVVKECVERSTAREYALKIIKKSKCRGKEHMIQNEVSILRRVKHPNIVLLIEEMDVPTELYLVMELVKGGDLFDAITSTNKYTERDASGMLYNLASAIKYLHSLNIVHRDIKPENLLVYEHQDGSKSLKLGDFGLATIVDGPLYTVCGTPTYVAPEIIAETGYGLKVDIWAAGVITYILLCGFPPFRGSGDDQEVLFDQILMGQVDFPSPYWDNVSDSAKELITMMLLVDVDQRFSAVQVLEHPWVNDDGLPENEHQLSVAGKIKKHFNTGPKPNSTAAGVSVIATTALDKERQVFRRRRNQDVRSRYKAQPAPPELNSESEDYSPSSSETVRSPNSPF

Another assay deals with T2, DRAK2 (Homo sapiens, UniProt O94768).
T2 construct: gene STK17B
T2 sequence (O94768 1-372): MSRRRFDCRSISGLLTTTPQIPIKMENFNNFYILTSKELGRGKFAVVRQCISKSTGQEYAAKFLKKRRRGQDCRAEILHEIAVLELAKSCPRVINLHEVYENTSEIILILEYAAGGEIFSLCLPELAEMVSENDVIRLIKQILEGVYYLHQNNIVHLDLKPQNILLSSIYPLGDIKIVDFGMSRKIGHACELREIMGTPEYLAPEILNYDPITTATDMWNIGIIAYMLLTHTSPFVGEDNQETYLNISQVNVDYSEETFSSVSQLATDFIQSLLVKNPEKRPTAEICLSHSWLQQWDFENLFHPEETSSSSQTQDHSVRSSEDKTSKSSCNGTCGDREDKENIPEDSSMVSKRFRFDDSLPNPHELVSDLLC

The target of a further assay is T3, FAK (Homo sapiens, UniProt Q05397).
T3 construct: gene PTK2

A further assay concerns the target T4, SgK110 (Homo sapiens, UniProt P0C264).
T4 construct: gene SBK3
T4 sequence (P0C264 1-359): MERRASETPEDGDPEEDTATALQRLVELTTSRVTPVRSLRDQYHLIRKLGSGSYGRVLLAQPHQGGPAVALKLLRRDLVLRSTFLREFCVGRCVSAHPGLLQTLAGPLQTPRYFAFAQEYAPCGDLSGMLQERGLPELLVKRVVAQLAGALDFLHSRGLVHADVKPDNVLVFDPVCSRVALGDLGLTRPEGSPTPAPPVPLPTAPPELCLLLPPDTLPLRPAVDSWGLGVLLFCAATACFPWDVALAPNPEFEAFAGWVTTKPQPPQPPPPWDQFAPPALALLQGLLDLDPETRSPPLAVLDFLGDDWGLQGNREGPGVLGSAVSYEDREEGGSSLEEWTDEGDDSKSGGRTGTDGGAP

[1] abbreviates: read-out: Rucaparib / %Ctrl @ 10000nM, binding competition, % of control.
Where [2] appears, read: read-out: Talazoparib (BMN 673) / %Ctrl @ 10000nM.
Where [3] appears, read: read-out: Niraparib (MK-4827) / %Ctrl @ 10000nM.
The mark [4] stands for this setting: read-out: Olaparib / %Ctrl @ 10000nM.

Each structure is given as a SMILES string. Like-named read-outs stand apart in the source and are kept apart here.

Sequence of MAP4K4 (O95819 whole entry): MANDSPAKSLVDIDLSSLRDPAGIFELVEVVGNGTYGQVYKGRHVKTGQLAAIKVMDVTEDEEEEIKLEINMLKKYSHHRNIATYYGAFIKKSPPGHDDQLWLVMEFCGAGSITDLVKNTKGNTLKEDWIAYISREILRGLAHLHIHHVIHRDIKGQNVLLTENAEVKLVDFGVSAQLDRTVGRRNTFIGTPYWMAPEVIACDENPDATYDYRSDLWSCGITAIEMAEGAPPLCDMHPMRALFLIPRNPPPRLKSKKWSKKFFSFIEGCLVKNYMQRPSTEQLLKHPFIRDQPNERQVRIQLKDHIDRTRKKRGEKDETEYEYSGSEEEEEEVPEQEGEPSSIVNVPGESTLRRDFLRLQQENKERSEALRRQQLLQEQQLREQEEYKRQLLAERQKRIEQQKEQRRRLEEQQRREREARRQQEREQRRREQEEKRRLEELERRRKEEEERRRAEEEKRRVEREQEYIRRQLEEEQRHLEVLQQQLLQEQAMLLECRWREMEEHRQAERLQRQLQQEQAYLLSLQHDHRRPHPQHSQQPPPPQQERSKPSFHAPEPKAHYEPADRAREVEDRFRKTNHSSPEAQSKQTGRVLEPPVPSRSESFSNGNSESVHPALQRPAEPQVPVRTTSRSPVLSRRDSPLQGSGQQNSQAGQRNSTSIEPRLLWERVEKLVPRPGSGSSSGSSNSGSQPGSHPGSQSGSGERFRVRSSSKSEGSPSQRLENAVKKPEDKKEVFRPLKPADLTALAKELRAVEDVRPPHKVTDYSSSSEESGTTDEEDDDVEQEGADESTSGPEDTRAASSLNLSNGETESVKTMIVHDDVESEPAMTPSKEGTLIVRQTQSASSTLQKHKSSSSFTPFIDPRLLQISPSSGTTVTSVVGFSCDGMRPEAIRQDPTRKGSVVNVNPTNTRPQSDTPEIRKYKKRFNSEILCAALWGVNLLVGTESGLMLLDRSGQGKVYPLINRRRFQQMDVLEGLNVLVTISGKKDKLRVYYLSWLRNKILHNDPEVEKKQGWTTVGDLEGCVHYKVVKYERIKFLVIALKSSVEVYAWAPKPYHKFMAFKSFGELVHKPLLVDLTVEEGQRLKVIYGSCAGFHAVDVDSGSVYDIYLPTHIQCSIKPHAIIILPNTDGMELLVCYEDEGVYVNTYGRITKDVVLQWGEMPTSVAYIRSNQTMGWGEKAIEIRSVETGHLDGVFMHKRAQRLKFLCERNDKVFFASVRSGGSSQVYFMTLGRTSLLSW
Sequence of LYN (P07948 whole entry): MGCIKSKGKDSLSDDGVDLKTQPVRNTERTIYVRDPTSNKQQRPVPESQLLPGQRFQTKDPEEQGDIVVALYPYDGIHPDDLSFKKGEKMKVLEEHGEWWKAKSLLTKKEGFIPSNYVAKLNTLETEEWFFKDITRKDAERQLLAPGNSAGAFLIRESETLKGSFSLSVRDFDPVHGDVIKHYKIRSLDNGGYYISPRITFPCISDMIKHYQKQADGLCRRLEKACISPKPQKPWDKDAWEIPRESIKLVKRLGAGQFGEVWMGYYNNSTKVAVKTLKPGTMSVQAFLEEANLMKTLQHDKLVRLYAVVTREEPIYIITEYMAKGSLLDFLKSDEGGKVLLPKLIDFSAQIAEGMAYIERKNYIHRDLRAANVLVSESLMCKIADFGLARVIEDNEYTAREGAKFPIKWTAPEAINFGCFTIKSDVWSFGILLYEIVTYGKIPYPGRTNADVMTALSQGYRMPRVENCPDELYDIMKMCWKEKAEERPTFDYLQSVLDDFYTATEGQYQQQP
Sequence of FGFR4 (P22455 whole entry): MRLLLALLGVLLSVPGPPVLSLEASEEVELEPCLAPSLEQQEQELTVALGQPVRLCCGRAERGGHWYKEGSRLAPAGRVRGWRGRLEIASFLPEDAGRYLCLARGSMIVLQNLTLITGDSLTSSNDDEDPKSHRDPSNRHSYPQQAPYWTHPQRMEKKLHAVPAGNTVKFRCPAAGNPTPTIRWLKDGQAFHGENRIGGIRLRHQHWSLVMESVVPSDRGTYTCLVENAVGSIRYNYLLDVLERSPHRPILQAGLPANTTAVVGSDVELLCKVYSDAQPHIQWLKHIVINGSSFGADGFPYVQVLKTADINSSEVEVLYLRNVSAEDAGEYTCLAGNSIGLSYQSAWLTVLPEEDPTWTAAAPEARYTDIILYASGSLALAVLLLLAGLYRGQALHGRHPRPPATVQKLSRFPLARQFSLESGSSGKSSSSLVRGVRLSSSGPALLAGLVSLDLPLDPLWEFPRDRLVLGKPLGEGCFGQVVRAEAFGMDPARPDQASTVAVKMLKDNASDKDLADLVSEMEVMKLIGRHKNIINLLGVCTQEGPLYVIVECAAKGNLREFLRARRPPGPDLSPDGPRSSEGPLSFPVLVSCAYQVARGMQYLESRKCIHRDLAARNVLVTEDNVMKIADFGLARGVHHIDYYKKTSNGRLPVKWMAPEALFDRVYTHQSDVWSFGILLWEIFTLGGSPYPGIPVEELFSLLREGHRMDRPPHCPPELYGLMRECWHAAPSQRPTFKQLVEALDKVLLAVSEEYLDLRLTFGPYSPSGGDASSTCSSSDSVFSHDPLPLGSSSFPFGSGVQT
Sequence of WNK1 (Q9H4A3 whole entry): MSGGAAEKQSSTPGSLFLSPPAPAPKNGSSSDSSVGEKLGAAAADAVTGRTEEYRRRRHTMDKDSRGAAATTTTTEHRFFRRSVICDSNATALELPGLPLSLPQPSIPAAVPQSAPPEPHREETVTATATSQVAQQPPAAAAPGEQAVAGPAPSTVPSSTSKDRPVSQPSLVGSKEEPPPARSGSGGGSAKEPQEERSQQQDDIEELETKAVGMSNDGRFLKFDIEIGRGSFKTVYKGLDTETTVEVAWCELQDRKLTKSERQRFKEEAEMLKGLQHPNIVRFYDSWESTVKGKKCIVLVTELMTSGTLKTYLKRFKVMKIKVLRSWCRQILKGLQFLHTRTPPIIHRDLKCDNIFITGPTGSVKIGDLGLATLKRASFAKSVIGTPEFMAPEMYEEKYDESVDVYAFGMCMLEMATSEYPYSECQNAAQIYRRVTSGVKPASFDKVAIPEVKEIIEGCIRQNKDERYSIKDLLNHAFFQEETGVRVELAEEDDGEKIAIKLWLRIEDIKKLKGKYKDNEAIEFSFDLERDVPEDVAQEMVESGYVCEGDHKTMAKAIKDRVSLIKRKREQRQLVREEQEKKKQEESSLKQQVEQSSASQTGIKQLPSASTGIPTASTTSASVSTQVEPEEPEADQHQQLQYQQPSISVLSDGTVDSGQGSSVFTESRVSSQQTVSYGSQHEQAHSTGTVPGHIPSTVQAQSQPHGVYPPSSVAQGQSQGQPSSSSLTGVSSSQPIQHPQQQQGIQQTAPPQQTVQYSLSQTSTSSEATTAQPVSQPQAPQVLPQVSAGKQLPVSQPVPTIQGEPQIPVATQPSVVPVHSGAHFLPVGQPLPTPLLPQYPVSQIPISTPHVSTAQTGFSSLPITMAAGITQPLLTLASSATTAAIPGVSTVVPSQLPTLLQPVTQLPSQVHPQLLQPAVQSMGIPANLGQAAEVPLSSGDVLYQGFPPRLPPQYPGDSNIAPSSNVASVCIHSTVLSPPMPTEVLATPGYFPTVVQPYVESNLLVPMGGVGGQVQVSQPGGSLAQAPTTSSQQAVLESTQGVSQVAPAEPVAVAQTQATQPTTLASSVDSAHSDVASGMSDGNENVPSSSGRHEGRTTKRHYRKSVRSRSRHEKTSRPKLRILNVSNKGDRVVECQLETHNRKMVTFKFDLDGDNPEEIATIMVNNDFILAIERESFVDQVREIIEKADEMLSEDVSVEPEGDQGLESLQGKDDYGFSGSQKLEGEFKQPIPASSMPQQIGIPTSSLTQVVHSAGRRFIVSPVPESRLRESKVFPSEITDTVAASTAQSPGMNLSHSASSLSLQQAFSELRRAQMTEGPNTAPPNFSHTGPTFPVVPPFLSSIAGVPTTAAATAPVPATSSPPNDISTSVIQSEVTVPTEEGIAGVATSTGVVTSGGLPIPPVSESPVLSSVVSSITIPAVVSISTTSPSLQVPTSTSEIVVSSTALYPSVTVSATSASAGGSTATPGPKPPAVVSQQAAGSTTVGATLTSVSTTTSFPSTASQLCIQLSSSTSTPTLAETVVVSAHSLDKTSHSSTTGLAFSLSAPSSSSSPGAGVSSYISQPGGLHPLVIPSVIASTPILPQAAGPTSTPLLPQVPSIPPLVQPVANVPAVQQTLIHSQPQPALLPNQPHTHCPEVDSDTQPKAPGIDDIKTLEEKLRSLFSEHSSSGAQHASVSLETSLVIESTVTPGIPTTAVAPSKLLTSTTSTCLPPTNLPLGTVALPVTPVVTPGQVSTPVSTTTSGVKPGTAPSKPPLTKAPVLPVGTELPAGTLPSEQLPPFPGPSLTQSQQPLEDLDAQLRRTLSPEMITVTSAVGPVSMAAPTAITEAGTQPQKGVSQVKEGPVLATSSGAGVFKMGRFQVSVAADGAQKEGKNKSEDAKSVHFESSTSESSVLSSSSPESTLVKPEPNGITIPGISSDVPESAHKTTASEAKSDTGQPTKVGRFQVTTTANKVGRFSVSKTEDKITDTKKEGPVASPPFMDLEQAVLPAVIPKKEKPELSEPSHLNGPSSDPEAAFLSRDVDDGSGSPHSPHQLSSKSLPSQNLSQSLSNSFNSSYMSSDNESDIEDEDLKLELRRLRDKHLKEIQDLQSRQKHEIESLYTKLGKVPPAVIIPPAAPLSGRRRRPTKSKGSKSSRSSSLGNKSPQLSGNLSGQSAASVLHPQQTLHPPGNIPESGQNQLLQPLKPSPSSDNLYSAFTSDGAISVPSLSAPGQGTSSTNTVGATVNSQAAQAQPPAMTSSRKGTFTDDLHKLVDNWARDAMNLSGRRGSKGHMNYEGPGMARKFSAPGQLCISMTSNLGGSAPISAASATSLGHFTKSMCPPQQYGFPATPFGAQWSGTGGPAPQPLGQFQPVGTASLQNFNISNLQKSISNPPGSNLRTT

In the case of `CNCc1ccc(-c2[nH]c3cc(F)cc4c3c2CCNC4=O)cc1` [Rucaparib], the percent of control binding at 10 µM is 83% on ALK(L1196M) (setting [1]); 76% at CSNK1E (setting [1]); 78% at DCAMKL1 (setting [1]); 98% at DRAK2 (setting [1]); 75% on ERN1 (setting [1]); 100% on FAK (setting [1]). The percent of control binding at 10 µM at FGFR4 (setting [1]) came out at 91%; on LYN (setting [1]), 89%; on MAP4K4 (setting [1]), 82%; at SgK110 (setting [1]) it was 63%; at WNK1 (setting [1]) it was 81%.
As to `Cn1ncnc1[C@H]1c2n[nH]c(=O)c3cc(F)cc(c23)N[C@@H]1c1ccc(F)cc1` [Talazoparib], the percent of control binding at 10 µM amounted to 100% at ALK(L1196M) (setting [2]); 69% at CSNK1E (setting [2]); 90% on DCAMKL1 (setting [2]); 100% at DRAK2 (setting [2]); 91% at ERN1 (setting [2]); 100% on FAK (setting [2]). The percent of control binding at 10 µM amounted to 100% at FGFR4 (setting [2]); 87% at LYN (setting [2]); 100% on MAP4K4 (setting [2]); 100% at SgK110 (setting [2]); 100% at WNK1 (setting [2]).
As to `NC(=O)c1cccc2cn(-c3ccc([C@@H]4CCCNC4)cc3)nc12` [Niraparib], the percent of control binding at 10 µM stood at 81% on ALK(L1196M) (setting [3]); 57% at CSNK1E (setting [3]); 89% at DCAMKL1 (setting [3]); 82% at DRAK2 (setting [3]); 100% on ERN1 (setting [3]); 100% on FAK (setting [3]). Moreover, the percent of control binding at 10 µM on FGFR4 (setting [3]) came to 94%; at LYN (setting [3]), 71%; at MAP4K4 (setting [3]), 94%; on SgK110 (setting [3]), 84%; at WNK1 (setting [3]), 100%.
For the molecule `O=C(c1cc(Cc2n[nH]c(=O)c3ccccc23)ccc1F)N1CCN(C(=O)C2CC2)CC1` [Olaparib], the percent of control binding at 10 µM turned out to be 83% at ALK(L1196M) (setting [4]); 90% at CSNK1E (setting [4]); 100% on DCAMKL1 (setting [4]); 69% at DRAK2 (setting [4]); 88% at ERN1 (setting [4]); 100% on FAK (setting [4]). Moreover, the percent of control binding at 10 µM at FGFR4 (setting [4]) is 82%; on LYN (setting [4]), 93%; on MAP4K4 (setting [4]), 100%; on SgK110 (setting [4]), 63%; on WNK1 (setting [4]), 76%.
